Reference: patent US7563781B2, “Triazolopyrimidine derivatives” (Janssen Pharmaceutica NV, priority 2006, dated 2009)

Biological target: T1, Focal Adhesion Kinase (full-length Flag-tagged human FAK) (Homo sapiens, UniProt Q05397)
T1 construct: a purified recombinant full-length Flag-tagged human FAK protein; Flag; made in house; host or cells: baculovirus infected insect cells
Experiment: in vitro FAK ELISA kinase assay
Format: biochemical
Settings: compound 10 uM; ATP 2 uM; read-out: FAK % Inhib ave: 10 uM
Procedure: Compound effects on the tyrosine kinase activity of Focal Adhesion Kinase were assessed with an in vitro FAK ELISA kinase assay. This assay measures the incorporation of phosphate from ATP into a FAK substrate protein using an antibody specific for phospho-tyrosine.
500 ng of FAKsubstrate, a purified recombinant fusion protein of GST and a 73 amino acid region surrounding the Tyr397 human FAK autophosphorylation site, was coated in a high-protein binding polystyrene 96 well plate overnight in a buffer containing 50 mM Hepes, pH 7.5, 150 mM NaCl, 0.1 mM Na-oVO4, 0.1 mM NaF and 1 protease inhibitor tablet/10 mL (Complete Mini-EDTA-free, Roche). The next day this solution was removed and the wells were incubated with 0.2% BSA in 50 mM Hepes, pH 7.5, 150 mM NaCl, 0.2 mM PMSF for 1 hour at 30° C. to block unoccupied protein binding sites. The wells were then washed with 50 mM Hepes, pH 7.5, 150 mM NaCl, 0.1% Tween 20. The kinase reaction was performed with 25 ng/well of FAK enzyme (a purified recombinant full-length Flag-tagged human FAK protein made in baculovirus infected insect cells) in 0.1 mL of a buffer containing 25 mM Hepes, pH 7.5, 5 mM MgCl2, 0.5 mM MnCl2, 10 uM NaoVO4, 0.2 mM PMSF. Compounds were added from 30% DMSO stock solutions for a screening concentration of 10 uM or IC50 determinations from 50 uM in half-log dilutions. The reaction is initiated with addition of ATP to a final concentration of 2 uM and incubated at 30° C. for 1 hour. Following the kinase reaction step, the wells were washed and incubated with 50 ng of Horseradish Peroxidase conjugated anti-phosphotyrosine antibody (PT-66 HRP, Sigma) in 0.1 mL wash buffer for 1 hour at 30° C. Wells were then washed and 0.1 mL HRP substrate, Tetra-methyl Benzidine (Sigma) was added and the color reaction allowed to proceed for 2-3 minutes followed by the addition of 0.1 mL of 1N H2SO4 to stop the HRP reaction. Percent inhibition of FAK kinase activity was calculated by comparing compound containing wells to wells treated with diluent only. Background was subtracted from all wells and was defined as the activity of FAK using 500 ng/well of BSA as a substrate. IC50 values were obtained using Prism data analysis software.

T1 sequence (Q05397 whole entry): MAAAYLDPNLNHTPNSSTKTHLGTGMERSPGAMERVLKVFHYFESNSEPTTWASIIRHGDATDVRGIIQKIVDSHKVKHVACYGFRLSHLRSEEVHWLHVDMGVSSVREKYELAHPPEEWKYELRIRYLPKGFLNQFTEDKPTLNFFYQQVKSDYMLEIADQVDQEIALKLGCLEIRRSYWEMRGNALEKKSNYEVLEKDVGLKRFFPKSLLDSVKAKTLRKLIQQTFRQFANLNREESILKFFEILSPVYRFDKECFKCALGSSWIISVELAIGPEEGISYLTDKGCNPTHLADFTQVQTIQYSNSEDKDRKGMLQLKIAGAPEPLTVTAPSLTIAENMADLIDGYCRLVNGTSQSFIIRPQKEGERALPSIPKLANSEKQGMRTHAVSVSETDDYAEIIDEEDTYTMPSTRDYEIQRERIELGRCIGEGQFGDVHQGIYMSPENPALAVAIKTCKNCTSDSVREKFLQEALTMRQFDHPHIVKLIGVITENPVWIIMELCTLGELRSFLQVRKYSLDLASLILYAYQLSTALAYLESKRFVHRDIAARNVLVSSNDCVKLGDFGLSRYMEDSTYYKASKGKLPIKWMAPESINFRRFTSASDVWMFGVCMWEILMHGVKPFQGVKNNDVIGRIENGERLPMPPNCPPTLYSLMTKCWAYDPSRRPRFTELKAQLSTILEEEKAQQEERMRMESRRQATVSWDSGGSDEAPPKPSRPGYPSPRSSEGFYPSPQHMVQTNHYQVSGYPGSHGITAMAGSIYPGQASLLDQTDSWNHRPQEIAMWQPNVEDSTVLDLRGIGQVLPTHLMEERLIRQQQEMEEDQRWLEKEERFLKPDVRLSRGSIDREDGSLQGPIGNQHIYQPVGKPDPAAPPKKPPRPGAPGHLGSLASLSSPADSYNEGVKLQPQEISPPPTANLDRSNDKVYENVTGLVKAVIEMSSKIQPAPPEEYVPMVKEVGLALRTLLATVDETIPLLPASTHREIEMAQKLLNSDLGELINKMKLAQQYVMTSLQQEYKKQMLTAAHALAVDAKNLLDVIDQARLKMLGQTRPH

SMILES | inhibition at 10 µM
COc1ccc(-n2nnc3cnc(Nc4ccc(OCC(O)CN(C)C)cc4)nc32)cc1OC (stereo not drawn) [Compound 3, 1-{4-[3-(3,4-Dimethoxy-phenyl)-3H-[1,2,3]triazolo[4,5-d]pyrimidin-5-ylamino]-phenoxy]-3-dimethylamino-propan-2-ol] | 53.2%
CCCCNS(=O)(=O)c1cccc(-n2nnc3cnc(Nc4ccc(OCC(O)CN(C)C)cc4)nc32)c1 (stereo not drawn) [Compound 35, N-Butyl-3-{5-[4-(3-dimethylamino-2-hydroxy-propoxy)-phenylamino]-[1,2,3]triazolo[4,5-d]pyrimidin-3-yl}-benzene-sulfonamide] | 91.6%
CN(C)CCCOc1ccc(Nc2ncc3nnn(-c4ccc5c(c4)CCC5)c3n2)cc1 [Compound 4, [4-(3-Dimethylamino-propoxy)-phenyl]-(3-indan-5-yl-3H-[1,2,3]triazolo[4,5-d]pyrimidin-5-yl)-amine] | 95%
